We go through nine compounds from ChEMBL document CHEMBL1154053, “The structure-based design, synthesis, and biological evaluation of DNA-binding amide linked bisintercalating bisanthrapyrazole anticancer compounds” (Bioorg Med Chem, 2009).

Broadly, the IC50 is the concentration needed to halve the response being measured. The low end stands for greater potency, the high end for weaker potency. One may read the ΔTm as the change in melting temperature against a reference sample.

Assay [1] deals with K562. The assay can be described thus: Growth inhibition of human K562 cells by MTS method. In kind it is functional, cell-based. (Formazan colour is commonly taken as a measure of viable cells.)
For assay [2], the system named is K562. Kind of assay: Resistance factor, ratio of IC50 for human K/VP.5 cells to IC50 for human K562 cells. In kind it is functional.
The subject of another assay is Calf thymus DNA. The assay can be described thus: Binding affinity to calf thymus DNA assessed as change in melting temperature at 2 uM by thermal denaturation assay. Conditions: Bos taurus. In kind it is nucleic-acid assay.
A short description of assay [3]: Growth inhibition of human K/VP.5 cells by MTS method. The class given is functional.
The target of assay [4] is DNA topoisomerase 2-alpha (Homo sapiens, UniProt P11388). The assay can be described thus: Inhibition of decatenation activity of human topoisomerase 2alpha.
DNA topoisomerase 2-alpha, sequence (P11388 whole entry): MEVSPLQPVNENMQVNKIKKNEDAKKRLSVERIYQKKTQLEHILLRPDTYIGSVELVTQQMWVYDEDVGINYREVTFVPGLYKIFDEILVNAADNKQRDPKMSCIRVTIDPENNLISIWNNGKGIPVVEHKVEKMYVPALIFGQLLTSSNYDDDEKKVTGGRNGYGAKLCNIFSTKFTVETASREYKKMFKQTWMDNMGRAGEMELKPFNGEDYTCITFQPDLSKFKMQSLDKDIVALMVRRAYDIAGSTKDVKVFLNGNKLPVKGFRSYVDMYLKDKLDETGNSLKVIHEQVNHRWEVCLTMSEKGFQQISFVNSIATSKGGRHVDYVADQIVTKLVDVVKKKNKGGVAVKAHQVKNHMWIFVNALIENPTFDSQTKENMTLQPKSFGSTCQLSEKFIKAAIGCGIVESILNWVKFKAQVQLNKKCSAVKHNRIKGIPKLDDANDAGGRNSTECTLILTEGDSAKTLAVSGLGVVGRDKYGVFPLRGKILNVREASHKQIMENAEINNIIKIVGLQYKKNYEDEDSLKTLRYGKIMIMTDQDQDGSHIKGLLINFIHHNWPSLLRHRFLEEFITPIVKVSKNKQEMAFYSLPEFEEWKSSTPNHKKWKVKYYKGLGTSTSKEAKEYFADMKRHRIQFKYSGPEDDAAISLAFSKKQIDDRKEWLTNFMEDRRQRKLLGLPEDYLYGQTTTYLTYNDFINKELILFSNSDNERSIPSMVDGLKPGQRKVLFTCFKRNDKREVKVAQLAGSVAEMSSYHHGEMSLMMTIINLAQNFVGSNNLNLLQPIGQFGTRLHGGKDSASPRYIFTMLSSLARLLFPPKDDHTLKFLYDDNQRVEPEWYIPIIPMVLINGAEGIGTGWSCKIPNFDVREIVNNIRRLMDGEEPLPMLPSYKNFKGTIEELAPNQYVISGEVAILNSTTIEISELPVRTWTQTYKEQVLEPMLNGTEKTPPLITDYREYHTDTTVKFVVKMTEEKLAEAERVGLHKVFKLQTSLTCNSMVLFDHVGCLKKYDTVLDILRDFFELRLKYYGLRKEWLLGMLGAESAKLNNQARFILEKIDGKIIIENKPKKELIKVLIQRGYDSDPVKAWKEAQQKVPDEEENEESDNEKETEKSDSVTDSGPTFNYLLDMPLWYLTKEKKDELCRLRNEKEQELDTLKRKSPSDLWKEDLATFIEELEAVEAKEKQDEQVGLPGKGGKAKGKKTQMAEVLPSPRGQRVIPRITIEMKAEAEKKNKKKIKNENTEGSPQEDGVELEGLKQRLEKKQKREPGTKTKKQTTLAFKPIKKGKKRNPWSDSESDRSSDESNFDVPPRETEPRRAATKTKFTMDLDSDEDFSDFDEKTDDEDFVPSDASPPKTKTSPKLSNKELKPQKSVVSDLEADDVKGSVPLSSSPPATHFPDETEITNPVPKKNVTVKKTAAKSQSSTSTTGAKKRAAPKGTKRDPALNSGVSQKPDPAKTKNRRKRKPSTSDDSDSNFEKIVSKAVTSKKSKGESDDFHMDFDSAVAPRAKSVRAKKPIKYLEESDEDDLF

For `CN(CCN)CCn1nc2c3c(cccc31)C(=O)c1c(Cl)cccc1-2`, the IC50 in the assay with K562 [1] came to 3.6 µM; in assay [3], 1.5 µM; in assay [4], 18 µM. For the same compound, the “Ratio IC50” value with K562 [2] was found to be 0.43. The ΔTm with Calf thymus DNA amounted to 10.2 °C.
For `CN(CCNC(=O)CCC(=O)NCCN(C)CCn1nc2c3c(cccc31)C(=O)c1c(Cl)cccc1-2)CCn1nc2c3c(cccc31)C(=O)c1c(Cl)cccc1-2` the same measures were 3.5 µM, 1.6 µM, 7 µM, 0.44 and 21.8 °C.
For `CN(CCNC(=O)CCCCCC(=O)NCCN(C)CCn1nc2c3c(cccc31)C(=O)c1c(Cl)cccc1-2)CCn1nc2c3c(cccc31)C(=O)c1c(Cl)cccc1-2` the same measures were 4.6 µM, 2.5 µM, 22 µM, 0.55 and 4.8 °C.
For the compound `CN(CCO)CCn1nc2c3c(cccc31)C(=O)c1c(Cl)cccc1-2`, the IC50 in the assay on K562 [1] came out at 3.1 µM; in assay [3], 1.9 µM; in assay [4], 10 µM. In addition, in the assay with K562 [2], the “Ratio IC50” value was 0.63. Further, in the assay on Calf thymus DNA, the ΔTm was 5.4 °C.
With `CN(CCN=[N+]=[N-])CCn1nc2c3c(cccc31)C(=O)c1c(Cl)cccc1-2`, the values for the IC50 (in the assay with K562 [1]; in assay [4]) were 3.6 µM and 25 µM, respectively. Besides, the ΔTm in the assay with Calf thymus DNA amounted to 1.1 °C.
For the compound `CN(CCNC(=O)CC(=O)NCCN(C)CCn1nc2c3c(cccc31)C(=O)c1c(Cl)cccc1-2)CCn1nc2c3c(cccc31)C(=O)c1c(Cl)cccc1-2`, the figures for the IC50 (with K562 [1]; in assay [3]; in assay [4]) were 2.6 µM, 2 µM and 42 µM, respectively. Moreover, in the assay with K562 [2], the “Ratio IC50” value is 0.77. Also, in the assay with Calf thymus DNA, the ΔTm worked out at 9.6 °C.
Regarding `CN(CCNC(=O)CCCC(=O)NCCN(C)CCn1nc2c3c(cccc31)C(=O)c1c(Cl)cccc1-2)CCn1nc2c3c(cccc31)C(=O)c1c(Cl)cccc1-2`, the IC50 in the assay on K562 [1] turned out to be 5.7 µM; in assay [3] it was 2.3 µM; in assay [4], 25 µM. In the assay with K562 [2], the “Ratio IC50” value was found to be 0.39. In addition, in the assay with Calf thymus DNA, the ΔTm stood at 17.8 °C.
On to `COc1cccc2c1C(=O)c1c(O)c3c(c(O)c1C2=O)C[C@@](O)(C(=O)CO)C[C@@H]3O[C@H]1C[C@H](N)[C@H](O)[C@H](C)O1`, for which, in the assay with Calf thymus DNA, the ΔTm worked out at 17.8 °C.
On to `CN(CCNC(=O)CCCCC(=O)NCCN(C)CCn1nc2c3c(cccc31)C(=O)c1c(Cl)cccc1-2)CCn1nc2c3c(cccc31)C(=O)c1c(Cl)cccc1-2`, for which the half-maximal inhibitory concentration (IC50) with K562 [1] was 6.7 µM; in assay [3], 3.3 µM; in assay [4] it was 48 µM. For the same compound, the “Ratio IC50” value in the assay on K562 [2] is listed as 0.48. Besides, the shift in melting temperature (ΔTm) in the assay on Calf thymus DNA was 6.8 °C.
